In patent publication US20140309256A1, “Therapeutic Method” (FibroGen, Inc., priority 2011, published 2014):

How the values were obtained:
[1] = system: Human subjects with stage 3 or 4 chronic kidney disease; assay: Hemoglobin levels in chronic kidney disease patients treated orally with Compound A; type: in vivo; details: all groups A-D, oral, 16 or 24 weeks; all p<0.0001; dose-dependent
Procedure: No intravenous iron administration was allowed during the treatment, and subjects who had received more than one administration of IV iron within 12 weeks prior to randomization were excluded. […] Treatment was continued for weeks 5 through 16 with dose adjusted every 4 weeks to maintain hemoglobin of 11-13 g/dL (target Hb range). Group A continued dosing three time a week, Group B was switched to twice weekly dosing. Groups C (n=24) received a initial fixed dose of 50 mg, three times a week for 4 weeks and group D (n=24) received an initial fixed dose of 100 mg, three times a week. Treatment was continued for weeks 5 to 24 with dose adjusted to maintain hemoglobin of 10.5-12 g/dL (target Hb range). Hemoglobin and platelet counts were measured every 4 weeks.

[2] = system: Human subjects with stage 3 or 4 chronic kidney disease; assay: Platelet counts in chronic kidney disease patients treated orally with Compound A; type: in vivo
Procedure: No intravenous iron administration was allowed during the treatment, and subjects who had received more than one administration of IV iron within 12 weeks prior to randomization were excluded.
Groups A (n=24) and B (n=24) received an initial weight-adjusted dose of 60 mg (for subjects of 40 to 60 kg), 100 mg (for subjects of >60 to 90 kg), or 140 mg (for subjects of >90 to 140 kg), three times a week for 4 weeks. Treatment was continued for weeks 5 through 16 with dose adjusted every 4 weeks to maintain hemoglobin of 11-13 g/dL (target Hb range). Group A continued dosing three time a week, Group B was switched to twice weekly dosing.
Groups C (n=24) received a initial fixed dose of 50 mg, three times a week for 4 weeks and group D (n=24) received an initial fixed dose of 100 mg, three times a week. Treatment was continued for weeks 5 to 24 with dose adjusted to maintain hemoglobin of 10.5-12 g/dL (target Hb range). Hemoglobin and platelet counts were measured every 4 weeks.
In a separate analysis of the data from Example 1, all patient data on platelet count over time was combined and stratified into quartiles based on the baseline platelet count. Each quartile had n=24. Quartile 1 included the 24 patients with the lowest baseline platelet count. Quartile 2 included the 24 patients with the next highest baseline platelet count after the patients in quartile 1. Quartile 3 included the 24 patients with the next highest baseline platelet count after the patients in quartile 2. Quartile 4 included the 24 patients with the highest baseline platelet count.

PHD1 = PHD1 (Homo sapiens, UniProt Q96KS0); assay: HIF prolyl hydroxylase enzyme assay, PHD1; type: biochemical
Chain of PHD1 (Q96KS0 whole entry): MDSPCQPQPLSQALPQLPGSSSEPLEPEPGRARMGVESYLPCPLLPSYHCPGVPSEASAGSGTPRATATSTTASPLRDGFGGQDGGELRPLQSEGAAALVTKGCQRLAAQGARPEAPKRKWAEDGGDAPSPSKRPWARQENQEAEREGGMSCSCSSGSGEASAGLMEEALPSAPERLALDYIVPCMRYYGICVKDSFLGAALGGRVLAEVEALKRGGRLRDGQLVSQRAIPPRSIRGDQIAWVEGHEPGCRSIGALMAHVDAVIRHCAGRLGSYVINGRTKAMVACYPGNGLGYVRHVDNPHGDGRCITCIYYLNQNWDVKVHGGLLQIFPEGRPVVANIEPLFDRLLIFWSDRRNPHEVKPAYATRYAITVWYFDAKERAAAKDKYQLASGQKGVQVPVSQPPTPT
Excerpt: (§1) Suitable assay methods are well known in the art.

PHD3 = PHD3 (Homo sapiens, UniProt Q9H6Z9); assay: HIF prolyl hydroxylase enzyme assay, PHD3; type: biochemical
Chain of PHD3 (Q9H6Z9 whole entry): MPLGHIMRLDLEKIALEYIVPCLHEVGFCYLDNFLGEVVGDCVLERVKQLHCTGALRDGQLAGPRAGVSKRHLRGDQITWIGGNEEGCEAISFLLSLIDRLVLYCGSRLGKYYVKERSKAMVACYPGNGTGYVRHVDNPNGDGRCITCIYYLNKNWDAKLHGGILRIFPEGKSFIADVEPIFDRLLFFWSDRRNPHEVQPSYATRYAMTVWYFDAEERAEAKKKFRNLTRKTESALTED
Excerpt: as §1

treated subjects = details: treatment of anemia with ESA; cited from earlier work

Row | Mean platelet count change from baseline to end of treatment ([2]; Group A, weight-adjusted dose three times a week, 16 weeks, baseline 267, p<0.0001) | Mean platelet count change from baseline to end of treatment ([2]; Group B, weight-adjusted dose, switched to twice weekly, 16 weeks, baseline 292, p<0.0001) | Mean platelet count change from baseline to end of treatment ([2]; Group C, initial fixed dose 50 mg three times a week, 24 weeks, baseline 255, p=0.89) | Mean platelet count change from baseline to end of treatment ([2]; Group D, initial fixed dose 100 mg three times a week, 24 weeks, baseline 231, p=0.30) | Mean change in platelet count from baseline to end of treatment, combined groups ([2]; week 17, p<0.0001) | Mean change in platelet count from baseline to end of treatment, combined groups ([2]; week 25, p=0.41) | Platelet count over course of treatment, stratified by baseline quartile ([2]; quartile 4 (highest), mean baseline 388.7×10^9/L) | IC50 (PHD1) [nM] | IC50 (PHD3) [nM] | Molecule | Mean hemoglobin concentrations, end of treatment vs. baseline [1] | Platelet count over course of treatment, stratified by baseline quartile ([2]; lower 3 quartiles, mean baseline 164.9, 224.8, 272.2 ×10^9/L) | Effect on platelet count in treated subjects (treated subjects)
1 | −46.55 1×10^9/L | −43.67 1×10^9/L | −1.69 1×10^9/L | −11.88 1×10^9/L | −30.05 | −6.94 | decreased from baseline | 200 to 2000 | 200 to 2000 | Cc1nc(C(=O)NCC(=O)O)c(O)c2ccc(Oc3ccccc3)cc12 [Compound A, [(4-hydroxy-1-methyl-7-phenoxy-isoquinoline-3-carbonyl)-amino]-acetic acid] | increased from the baseline | maintained at (or not significantly increased from) the baseline level | 
2 |  |  |  |  |  |  |  |  |  | epoetin beta: erythropoiesis-stimulating agent, recombinant human erythropoietin (rHuEPO) |  |  | increase platelet count
3 |  |  |  |  |  |  |  |  |  | epoetin α: erythropoiesis-stimulating agent, recombinant human erythropoietin (rHuEPO) |  |  | increase platelet count
